Test results as given in patent US4935424A, “4 or 5-(substituted piperazinylalkyl)-2-aminothiazoles as antipsychotic agents” (priority 1988, dated 1990).
Like-named read-outs stand apart in the source and are kept apart here.

Assays:
brain dopamine synthesis = assay: Inhibition of brain dopamine synthesis in rats; format: in vivo; conditions: Rattus norvegicus, IP
Method: (§1) Thus, the compounds of Formula I were tested for their ability to inhibit locomotor activity in mice according to the assay described in Pharmacol. Biochem. Behav. 1978 (8) 97; for their ability to inhibit haloperidol binding in a receptor binding assay described in Mol. Pharmacol. 1976 (12), 800; for their ability to inhibit brain dopamine synthesis in rats according to the protocol described in Naumyn-Schmiedeberg's Arch. Pharmacol., 1976 (296) 5; and for their ability to inhibit dopamine neuron firing in rats according to the protocol described in Nature New Biology, 1973 (245) 123.

haloperidol binding = biological target: T1, haloperidol binding (Bos taurus, UniProt P20288); assay: Inhibition of haloperidol binding in a receptor binding assay; conditions: for inhibition at 10 µM: at 10,000 nM
T1 construct: from tissue
T1 sequence (P20288 whole entry): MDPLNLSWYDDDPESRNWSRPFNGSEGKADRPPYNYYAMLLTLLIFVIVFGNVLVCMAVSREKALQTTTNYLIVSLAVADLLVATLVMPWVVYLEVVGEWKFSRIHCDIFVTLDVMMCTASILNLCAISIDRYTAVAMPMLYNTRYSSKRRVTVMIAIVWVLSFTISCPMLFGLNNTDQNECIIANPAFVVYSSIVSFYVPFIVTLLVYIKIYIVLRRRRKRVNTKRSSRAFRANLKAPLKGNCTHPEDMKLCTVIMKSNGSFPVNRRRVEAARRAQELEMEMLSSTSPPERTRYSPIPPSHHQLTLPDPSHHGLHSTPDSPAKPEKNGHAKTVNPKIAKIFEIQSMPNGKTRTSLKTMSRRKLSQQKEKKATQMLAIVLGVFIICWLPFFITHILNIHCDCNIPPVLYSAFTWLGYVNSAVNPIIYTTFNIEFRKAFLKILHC
Method: as §1

dopamine neuron firing = assay: Inhibition of dopamine neuron firing in rats; format: in vivo; conditions: IP
Method: as §1

[1] = tested on: locomotor activity in mice; assay: Inhibition of locomotor activity in mice; format: in vivo; conditions: Mus musculus, IP
Method: as §1

[2] = read-out: Inhibition of Haloperidol Binding (IC50 nM)

Row | Compound | inhibition in vivo at 1 mg/kg (brain dopamine synthesis) [%] | IC50 (haloperidol binding; [2]) [nM] | Inhibition of Dopamine Neuron Firing in Rats (dopamine neuron firing; 2.5 mg/kg) [%] | ED50 [1] [mg/kg] | inhibition in vivo at 10 mg/kg (brain dopamine synthesis) [%] | IC50 (haloperidol binding) [nM] | inhibition at 10 µM (haloperidol binding) [%] | Inhibition of Dopamine Neuron Firing in Rats (dopamine neuron firing; 10 mg/kg) [%]
1 | Cc1nc(N)sc1CCCN1CCN(c2ncccn2)CC1 [Example 1, 4-Methyl-5-[3-[4-(2-pyrimidinyl)-1-piperazinyl]-propyl]-2-thiazolamine] | 82 | 370 | 90 | 6.3 |  |  |  | 
2 | Cc1nc(N)sc1CCCN1CCN(c2ccccn2)CC1 [Example 1j, 4-Methyl-5-[3-[4-(2-pyridinyl)-1-piperazinyl]propyl]-2-thiazolamine] |  | 249 | 98 | 4.6 | 100 |  |  | 
3 | Nc1ncc(CCN2CCN(c3ccccn3)CC2)s1 [Example 2, 5-[2-[4-(2-pyridinyl)-1-piperazinyl]ethyl]-2-thiazolamine] |  |  |  | 5.9 | 92 |  |  | 
4 | Cl.Cl.Nc1nc(CCCN2CC=C(c3ccccc3)CC2)cs1 [Example 1e, 4-[3-(3,6-Dihydro-4-phenyl-1(2H)-pyridinyl)propyl]-2-thiazolamine, dihydrochloride] |  |  | 78 | 1.7 | 44 | 346 |  | 
5 | Cc1nc(N)sc1CCN1CC=C(c2ccccc2)CC1 [Example 1d, 5-[2-(3,6-dihydro-4-phenyl-1(2H)-pyridinyl)ethyl]-4-methyl-2-thiazolamine] |  | 400 | 70 | 0.88 | 84 |  |  | 
6 | Nc1ncc(CCN2CC=C(c3ccccc3)CC2)s1 [Example 2b, 5-[2-(3,6-Dihydro-4-phenyl-1(2H)-pyridinyl)ethyl]-2-thiazolamine] |  |  |  | 0.47 | 25 |  |  | 
7 | Nc1nc(CCCN2CCN(c3ncccn3)CC2)cs1 [Example 1g, 4-[3-[4-(2-Pyrimidinyl)-1-piperazinyl]-propyl]-2-thiazolamine] |  | 1600 |  | > 30 |  |  |  | 
8 | Cc1nc(N)sc1CCN1CCN(c2ccccn2)CC1 [Example 1h, 4-Methyl-5-[2-[4-(2-pyridinyl)-1-piperazinyl]ethyl]-2-thiazolamine] | 87 | 75 | 100 | 1.4 |  |  |  | 
9 | Nc1ncc(CCN2CCN(c3ccccc3)CC2)s1 [Example 2a, 5-[2-(4-Phenyl-1-piperazinyl)ethyl]-2-thiazolamine] |  |  |  | 2.6 |  |  |  | 
10 | Nc1nc(CCCN2CCN(c3ccccn3)CC2)cs1 [Example 1i, 4-[3-[4-(2-Pyridinyl)-1-piperazinyl]-propyl]-2-thiazolamine] |  |  |  | 7.6 | 43 |  | 100 | 
11 | Cc1nc(N)sc1CCN1CCN(c2ccccc2)CC1 [Example 1b, 4-Methyl-5-[2-(4-phenyl-1-piperazinyl)ethyl]-2-thiazolamine] |  |  |  | 1.5 |  |  | 100 | 80
12 | Nc1nc(CCCN2CCN(c3ccccc3)CC2)cs1 [Example 1c, 4-[3-(4-Phenyl-1-piperazinyl)propyl]-2-thiazolamine] |  |  |  | 2.4 |  |  | 40 | 
13 | Cc1nc(N)sc1CCN1CCN(c2ncccn2)CC1 [Example 1f, 4-Methyl-5-[2-[4-(2-pyrimidinyl)-1-piperazinyl]ethyl]-2-thiazolamine] |  | 118 |  | 1.4 |  |  |  | 
14 | Nc1nc(CCCCN2CCN(c3ccccn3)CC2)cs1 [Example 1k, 4-[4-[4-(2-Pyridinyl)-1-piperazinyl]-butyl]-2-thiazolamine] |  | 488 |  | 5.5 | 63 |  |  | 
15 | Nc1nc(CCCCN2CCN(c3ncccn3)CC2)cs1 [Example 1a, 4-[4-[4-(2-Pyrimidinyl)-1-piperazinyl]butyl]-2-thiazolamine] |  | 1060 |  | > 30 |  |  |  | 
